Assay: xn = mol fraction of the nth substance listed
Conditions: 101 kPa

## [N-]=C=S.[NH4+] + CCOS(=O)(=O)[O-].CC[n+]1ccn(C)c1
298.15 K, x1 = 0.1553
  electrical conductivity: 0.319 S/m
  viscosity: 150 mPa·s
298.15 K, x1 = 0.4042
  electrical conductivity: 0.279 S/m
  viscosity: 231.1 mPa·s
298.15 K, x1 = 0.5205
  electrical conductivity: 0.281 S/m
  viscosity: 224 mPa·s
298.15 K, x1 = 0.565
  electrical conductivity: 0.295 S/m
  viscosity: 215.9 mPa·s
298.15 K, x1 = 0.5997
  electrical conductivity: 0.301 S/m
  viscosity: 208.9 mPa·s
303.15 K, x1 = 0.0235
  electrical conductivity: 0.461 S/m
  viscosity: 81.3 mPa·s
303.15 K, x1 = 0.1553
  electrical conductivity: 0.398 S/m
  viscosity: 118 mPa·s
303.15 K, x1 = 0.3025
  electrical conductivity: 0.358 S/m
  viscosity: 163.3 mPa·s
303.15 K, x1 = 0.4042
  electrical conductivity: 0.353 S/m
  viscosity: 178.7 mPa·s
303.15 K, x1 = 0.5205
  electrical conductivity: 0.358 S/m
  viscosity: 173.4 mPa·s
303.15 K, x1 = 0.5997
  electrical conductivity: 0.385 S/m
  viscosity: 168.2 mPa·s
308.15 K, x1 = 0.0235
  electrical conductivity: 0.56 S/m
  viscosity: 65.16 mPa·s
308.15 K, x1 = 0.1553
  electrical conductivity: 0.486 S/m
  viscosity: 94.3 mPa·s
308.15 K, x1 = 0.5205
  electrical conductivity: 0.446 S/m
  viscosity: 135.3 mPa·s
308.15 K, x1 = 0.565
  electrical conductivity: 0.468 S/m
  viscosity: 133.9 mPa·s
308.15 K, x1 = 0.5997
  electrical conductivity: 0.481 S/m
  viscosity: 133.7 mPa·s
313.15 K, x1 = 0.0235
  electrical conductivity: 0.67 S/m
  viscosity: 53.09 mPa·s
313.15 K, x1 = 0.1553
  electrical conductivity: 0.584 S/m
  viscosity: 76.57 mPa·s
313.15 K, x1 = 0.3025
  electrical conductivity: 0.531 S/m
  viscosity: 104.6 mPa·s
313.15 K, x1 = 0.4042
  electrical conductivity: 0.526 S/m
  viscosity: 112.9 mPa·s
313.15 K, x1 = 0.5205
  electrical conductivity: 0.546 S/m
  viscosity: 107.5 mPa·s
313.15 K, x1 = 0.565
  electrical conductivity: 0.573 S/m
  viscosity: 106 mPa·s
318.15 K, x1 = 0.0235
  electrical conductivity: 0.846 S/m
  viscosity: 43.86 mPa·s
318.15 K, x1 = 0.1553
  electrical conductivity: 0.739 S/m
  viscosity: 63.03 mPa·s
318.15 K, x1 = 0.3025
  electrical conductivity: 0.633 S/m
  viscosity: 85.6 mPa·s
318.15 K, x1 = 0.4042
  electrical conductivity: 0.633 S/m
  viscosity: 91.8 mPa·s
318.15 K, x1 = 0.5997
  electrical conductivity: 0.751 S/m
  viscosity: 84.6 mPa·s
323.15 K, x1 = 0.0235
  electrical conductivity: 0.99 S/m
  viscosity: 36.68 mPa·s
323.15 K, x1 = 0.1553
  electrical conductivity: 0.867 S/m
  viscosity: 52.56 mPa·s
323.15 K, x1 = 0.3025
  electrical conductivity: 0.795 S/m
  viscosity: 70.9 mPa·s
323.15 K, x1 = 0.4042
  electrical conductivity: 0.795 S/m
  viscosity: 75.6 mPa·s
323.15 K, x1 = 0.5205
  electrical conductivity: 0.831 S/m
  viscosity: 71.22 mPa·s
323.15 K, x1 = 0.5997
  electrical conductivity: 0.896 S/m
  viscosity: 68.92 mPa·s
328.15 K, x1 = 0.0235
  viscosity: 31.04 mPa·s
328.15 K, x1 = 0.1553
  viscosity: 44.26 mPa·s
328.15 K, x1 = 0.3025
  viscosity: 59.41 mPa·s
328.15 K, x1 = 0.4042
  viscosity: 63.04 mPa·s
328.15 K, x1 = 0.5205
  viscosity: 59.16 mPa·s
328.15 K, x1 = 0.565
  viscosity: 57.79 mPa·s
328.15 K, x1 = 0.5997
  viscosity: 56.96 mPa·s
333.15 K, x1 = 0.1553
  viscosity: 37.68 mPa·s
333.15 K, x1 = 0.5205
  viscosity: 49.72 mPa·s
333.15 K, x1 = 0.565
  viscosity: 48.47 mPa·s

## [N-]=C=S.[NH4+] + CC(=O)[O-].CC[n+]1ccn(C)c1
298.15 K, x1 = 0.02
  electrical conductivity: 0.294 S/m
  viscosity: 136.6 mPa·s
298.15 K, x1 = 0.1002
  electrical conductivity: 0.284 S/m
  viscosity: 160.2 mPa·s
298.15 K, x1 = 0.1998
  electrical conductivity: 0.296 S/m
  viscosity: 190.7 mPa·s
298.15 K, x1 = 0.2514
  electrical conductivity: 0.314 S/m
  viscosity: 198.6 mPa·s
298.15 K, x1 = 0.3413
  electrical conductivity: 0.358 S/m
  viscosity: 196.4 mPa·s
303.15 K, x1 = 0.02
  electrical conductivity: 0.382 S/m
  viscosity: 100.9 mPa·s
303.15 K, x1 = 0.2514
  electrical conductivity: 0.411 S/m
  viscosity: 144.4 mPa·s
303.15 K, x1 = 0.3199
  electrical conductivity: 0.458 S/m
  viscosity: 142.8 mPa·s
303.15 K, x1 = 0.3413
  electrical conductivity: 0.463 S/m
  viscosity: 143.6 mPa·s
308.15 K, x1 = 0.02
  electrical conductivity: 0.483 S/m
  viscosity: 76.4 mPa·s
308.15 K, x1 = 0.1002
  electrical conductivity: 0.473 S/m
  viscosity: 88.5 mPa·s
308.15 K, x1 = 0.3001
  electrical conductivity: 0.569 S/m
  viscosity: 105.9 mPa·s
308.15 K, x1 = 0.3199
  electrical conductivity: 0.58 S/m
  viscosity: 106.6 mPa·s
313.15 K, x1 = 0.02
  electrical conductivity: 0.601 S/m
  viscosity: 59.3 mPa·s
313.15 K, x1 = 0.1002
  electrical conductivity: 0.593 S/m
  viscosity: 68.1 mPa·s
313.15 K, x1 = 0.1998
  electrical conductivity: 0.617 S/m
  viscosity: 79.3 mPa·s
313.15 K, x1 = 0.2514
  electrical conductivity: 0.66 S/m
  viscosity: 81.5 mPa·s
313.15 K, x1 = 0.3001
  electrical conductivity: 0.782 S/m
  viscosity: 80.5 mPa·s
313.15 K, x1 = 0.3199
  electrical conductivity: 0.797 S/m
  viscosity: 81.1 mPa·s
318.15 K, x1 = 0.02
  electrical conductivity: 0.82 S/m
  viscosity: 46.9 mPa·s
318.15 K, x1 = 0.1002
  electrical conductivity: 0.811 S/m
  viscosity: 53.3 mPa·s
318.15 K, x1 = 0.2514
  electrical conductivity: 0.901 S/m
  viscosity: 62.9 mPa·s
318.15 K, x1 = 0.3001
  electrical conductivity: 0.968 S/m
  viscosity: 62.3 mPa·s
318.15 K, x1 = 0.3199
  electrical conductivity: 0.986 S/m
  viscosity: 62.8 mPa·s
318.15 K, x1 = 0.3413
  electrical conductivity: 0.997 S/m
  viscosity: 63.3 mPa·s
323.15 K, x1 = 0.02
  electrical conductivity: 0.986 S/m
  viscosity: 37.8 mPa·s
323.15 K, x1 = 0.1002
  electrical conductivity: 0.987 S/m
  viscosity: 42.5 mPa·s
323.15 K, x1 = 0.1998
  electrical conductivity: 1.04 S/m
  viscosity: 48.4 mPa·s
323.15 K, x1 = 0.2514
  electrical conductivity: 1.1 S/m
  viscosity: 49.3 mPa·s
323.15 K, x1 = 0.3001
  electrical conductivity: 1.18 S/m
  viscosity: 48.9 mPa·s
323.15 K, x1 = 0.3199
  electrical conductivity: 1.2 S/m
  viscosity: 49.3 mPa·s
323.15 K, x1 = 0.3413
  electrical conductivity: 1.21 S/m
  viscosity: 49.8 mPa·s
328.15 K, x1 = 0.02
  viscosity: 30.91 mPa·s
328.15 K, x1 = 0.1998
  viscosity: 38.62 mPa·s
328.15 K, x1 = 0.2514
  viscosity: 39.15 mPa·s
328.15 K, x1 = 0.3001
  viscosity: 38.91 mPa·s
328.15 K, x1 = 0.3413
  viscosity: 39.67 mPa·s
333.15 K, x1 = 0.2514
  viscosity: 31.49 mPa·s
333.15 K, x1 = 0.3199
  viscosity: 31.67 mPa·s
333.15 K, x1 = 0.3413
  viscosity: 32 mPa·s

## CCOS(=O)(=O)[O-].CC[n+]1ccn(C)c1 + [N-]=C=S.[NH4+]
298.15 K, x2 = 0
  electrical conductivity: 0.38 S/m
  viscosity: 95.9 mPa·s
303.15 K, x2 = 0
  electrical conductivity: 0.468 S/m
  viscosity: 75.63 mPa·s
308.15 K, x2 = 0
  electrical conductivity: 0.566 S/m
  viscosity: 60.66 mPa·s
313.15 K, x2 = 0
  electrical conductivity: 0.675 S/m
  viscosity: 49.45 mPa·s
318.15 K, x2 = 0
  electrical conductivity: 0.856 S/m
  viscosity: 40.88 mPa·s
323.15 K, x2 = 0
  electrical conductivity: 1 S/m
  viscosity: 34.24 mPa·s
328.15 K, x2 = 0
  viscosity: 28.99 mPa·s
333.15 K, x2 = 0
  viscosity: 24.81 mPa·s

## CC(=O)[O-].CC[n+]1ccn(C)c1 + [N-]=C=S.[NH4+]
298.15 K, x2 = 0
  electrical conductivity: 0.295 S/m
  viscosity: 128.4 mPa·s
303.15 K, x2 = 0
  electrical conductivity: 0.383 S/m
  viscosity: 95.1 mPa·s
308.15 K, x2 = 0
  electrical conductivity: 0.483 S/m
  viscosity: 72.4 mPa·s
318.15 K, x2 = 0
  electrical conductivity: 0.819 S/m
  viscosity: 44.8 mPa·s
323.15 K, x2 = 0
  electrical conductivity: 0.984 S/m
  viscosity: 36.27 mPa·s
328.15 K, x2 = 0
  viscosity: 29.81 mPa·s
333.15 K, x2 = 0
  viscosity: 24.86 mPa·s

Reference: a compilation of properties of binary mixtures (doi:10.1039/c2cc30374d)
